Measured values as given in patent publication US4220641A, “Organic compounds” (Sandoz Ltd., priority 1977, dated 1980).

Legend:
ear swelling = test: Oxazolon test in mice; type: in vivo; settings: 5×70 mg/kg p.o.
Protocol: (b) Oxazolon test in mice:
A decrease in the ear swelling is observed upon administration of 5×70 mg/kg p.o. of the compound.

[1] = test system: mice spleen lymphoctyes stimulated with Concanavalin A; test: lymphocyte stimulation test according to Janossy in vitro; type: cell-based; settings: concentrations of 0.01 to 10.0 μg/ml, Concanavalin A stimulated mice spleen lymphocytes

Compound: C/C=C/C[C@@H](C)[C@@H](O)[C@H]1C(=O)N[C@@H](C(C)C)C(=O)N(C)CC(=O)N(C)[C@@H](CC(C)C)C(=O)N[C@@H](C(C)C)C(=O)N(C)[C@@H](CC(C)C)C(=O)N[C@@H](C)C(=O)N[C@H](C)C(=O)N(C)[C@@H](CC(C)C)C(=O)N(C)[C@@H](CC(C)C)C(=O)N(C)[C@@H](C(C)C)C(=O)N1C [cyclosporin D]
- ear swelling (ear swelling): decrease
- inhibition of H^3-thymidine incorporation [1]: strong inhibition
- inhibition of the blastogenese [1]: strong inhibition
- inhibition of the proliferation rate [1]: strong inhibition

Compound: CCCC[C@@H](C)[C@@H](O)C1C(=O)N[C@@H](C(C)C)C(=O)N(C)CC(=O)N(C)[C@@H](CC(C)C)C(=O)N[C@@H](C(C)C)C(=O)N(C)[C@@H](CC(C)C)C(=O)N[C@@H](C)C(=O)N[C@H](C)C(=O)N(C)[C@@H](CC(C)C)C(=O)N(C)[C@@H](CC(C)C)C(=O)N(C)[C@@H](C(C)C)C(=O)N1C (some centres unmarked) [dihydrocyclosporin D]
- ear swelling (ear swelling): decrease
- inhibition of H^3-thymidine incorporation [1]: strong inhibition
- inhibition of the blastogenese [1]: strong inhibition
- inhibition of the proliferation rate [1]: strong inhibition
